Measurements reported in US20090192164A1, “Treating agent of inflammatory bowel disease” (ASKA Pharmaceutical Co., Ltd., priority 2006, published 2009).

Legend:
[1] = system: TNF-α production in THP-1 cells; assay: TNF-α production-inhibiting activity in LPS-stimulated THP-1 cells; format: cell-based; settings: Homo sapiens, 2 hours, ELISA
Method: (2) Measurement of TNF-α Production-Inhibiting Activity:
THP-1 (purchased from Dainippon Pharmaceuticals Co.) which are human-derived cultured cells, were suspended in RPMI1640 culture medium (10% fetal bovine serum, containing 100 units/mL penicillin) (1×10^5 cells/mL). Onto a 24-well culture plate, 1.6 mL of the THP-1 cell suspension was inoculated, and further 0.2 mL of the test substance as dissolved in RPM11640 culture medium and 0.2 mL of LPS (E. Coli 055: B5-derived, dissolved in RPM11640 culture medium, Difco) at a concentration of 10 μg/mL were added, followed by 2 hours' cultivation under the conditions of 37° C. and 5% CO2. The supernatant obtained upon centrifugation (500×g, 5 min.) was assayed with ELISA (Amersham Bioscience, TNF-α: Human, ELISA Biotrak System) to quantify TNF-α. The concentration of each test substance required to inhibit TNF-α production by 50% (IC50) was determined as follows. First, TNF-α production inhibition (%) values at various concentrations were determined by the following formula: […]
The TNF-α production inhibition (%) obtained by the above formula and the concentration of the test substance in that occasion were computed on Prism 4 for Windows Ver 4.02 (Graph Pad Software, Inc.) to calculate IC50 value.

[2] = Compounds' extinction rates in human liver S9; format: in vitro ADME; settings: human liver S9 0.5 mg protein/mL, compound 1 μmol/L, 37° C.
Method: (3) Measurement of the Compounds' Extinction Rates:
To a potassium phosphate buffer solution (50 mmol/L, pH […]) containing NADPH production system (formed of 3.3 mmol/L MgCl2, 3.3 mmol/L glucose-6-phosphate, 1.3 mmol/L β-NAPD^+ and 0.4 unit/mL glucose-6-phosphate dehydrogenase), each test compound was added (in which occasion the final concentration was made 1 μmol/L) and incubated at 37° C. for 2 minutes. After the incubation, a suspension of human liver S9 (supernatant fraction obtained by centrifugation of crushed human liver cells at 9000×g) in potassium phosphate buffer solution was added to a final concentration of 0.5 mg protein/mL. This liquid reaction mixture was incubated at 37° C. for 5 minutes, to which 4 volume times thereof of acetonitrile was added, mixed, and cooled with ice. After the cooling with ice, the mixture was centrifuged (2000×g, 10 min.) and a part of the supernatant was recovered and analyzed with LSIMS/MS to calculate the residual ratio of unchanged substance in the reaction solution. The results are shown in the following Table B concurrently with the results of above (2) measurement of TNF-α production-inhibiting activity.

Row | Structure (SMILES) | IC50 [1] | Parent compound remaining after 5 min in human liver S9 (%) [2]
1 | Cc1cccc(CC(=O)Nc2onc(-c3ccc(F)cc3F)c2-c2ccncn2)c1 [Compound B-5, 3-(2,4-Difluorophenyl)-5-[(3-methylphenyl)acetylamino]-4-(4-pyrimidinyl)isoxazole] | 139 nM | 46.6%
2 | Cc1cccc(-c2noc(NC(=O)Cc3ccccc3Br)c2-c2ccncn2)c1 [Compound B-8, 5-[(2-Bromophenyl)acetylamino]-3-(3-methylphenyl)-4-(4-pyrimidinyl)isoxazole] | 49.2 nM | 43.6%
3 | O=C(Cc1ccccc1Cl)Nc1onc(-c2ccc(F)cc2)c1-c1ccncn1 [Compound B-1, 5-[(2-Chlorophenyl)acetylamino]-3-(4-fluorophenyl)-4-(4-pyrimidinyl)isoxazole] | 36.1 nM | 5.8%
4 | COc1ccc(-c2noc(NC(=O)Cc3ccccc3Cl)c2-c2ccncn2)c(F)c1 [Compound B-6, 5-[(2-Chlorophenyl)acetylamino]-3-(2-fluoro-4-methoxyphenyl)-4-(4-pyrimidinyl)isoxazole] | 28.5 nM | 24.1%
5 | Cc1cc(-c2noc(NC(=O)Cc3ccccc3Cl)c2-c2ccncc2)ccc1F [Compound B-18, 5-[(2-Chlorophenyl)acetylamino]-3-(4-fluoro-3-methylphenyl)-4-(4-pyridyl)isoxazole] | 85.2 nM | 59.7%
6 | Cc1ccc(F)c(-c2noc(NC(=O)CCc3cccc(Cl)c3)c2-c2ccncc2)c1 [Compound B-16, 5-[(3-Chlorophenyl)propionylamino]-3-(2-fluoro-5-methyl-phenyl)-4-(4-pyridyl)isoxazole] | 58.1 nM | 50.5%
7 | CCn1nc(-c2ccc(F)cc2)c(-c2ccncn2)c1C(=O)OCc1ccc(Cl)cc1Cl [Compound B-21] | 61.5 nM | 56.4%
8 | O=C(Cc1c(F)cccc1Cl)Nc1onc(-c2ccc(F)cc2)c1-c1ccncn1 [Compound B-2, 5-[(2-Chloro-6-fluorophenyl)acetylamino]-3-(4-fluorophenyl)-4-(4-pyrimidinyl)isoxazole] | 67.9 nM | 16.1%
9 | O=C(Cc1ccccc1Cl)Nc1onc(-c2ccc(F)cc2F)c1-c1ccncn1 [Compound B-4, 5-[(2-Chlorophenyl)acetylamino]-3-(2,4-difluorophenyl)-4-(4-pyrimidinyl)isoxazole] | 32.1 nM | 20.4%
10 | Cc1cccc(-c2noc(NC(=O)CCc3ccccc3C)c2-c2ccncc2)c1 [Compound B-15, 3-(3-Methylphenyl)-5-[(2-methylphenyl)propionylamino]-4-(4-pyridyl)isoxazole] | 52.9 nM | 23.3%
11 | Cc1cccc(CC(=O)Nc2onc(-c3cccc(C)c3)c2-c2ccncn2)c1 [Compound B-10, 3-(3-Methylphenyl)-5-[(3-methylphenyl)acetylamino]-4-(4-pyrimidinyl)isoxazole] | 152 nM | 38.5%
12 | Cc1cc(-c2noc(NC(=O)CCc3ccccc3)c2-c2ccncc2)ccc1F [Compound B-19, 3-(4-Fluoro-3-methylphenyl)-5-(3-phenylpropionylamino)-4-(4-pyridyl)isoxazole] | 66 nM | 20.1%
13 | COc1cccc(CC(=O)Nc2onc(-c3ccc(F)c(C)c3)c2-c2ccncn2)c1 [Compound B-12, 5-[(3-Methoxyphenyl)acetylamino]-3-(3-methyl-4-fluorophenyl)-4-(4-pyrimidinyl)isoxazole] | 52.6 nM | 33.1%
14 | Cc1cc(-c2noc(NC(=O)Cc3ccccc3)c2-c2ccncc2)ccc1F [Compound B-17, 3-(4-Fluoro-3-methylphenyl)-5-(phenylacetylamino)-4-(4-pyridyl)isoxazole] | 78.1 nM | 58.0%
15 | Cc1cccc(-c2nn(C)c(COC(=O)c3ccccc3)c2-c2ccncc2)c1 [Compound B-22] | 45.5 nM | 25.5%
16 | CCn1nc(-c2cccc(C)c2)c(-c2ccncc2)c1COC(=O)c1ccccc1 [Compound B-23] | 26.5 nM | 28.3%
17 | O=C(Cc1ccccc1Cl)Nc1onc(-c2ccc(Cl)cc2)c1-c1ccncn1 [Compound B-3, 3-(4-Chlorophenyl)-5-[(2-chlorophenyl)acetylamino]-4-(4-pyrimidinyl)isoxazole] | 48.7 nM | 53.1%
18 | Cc1cccc(-c2noc(NC(=O)Cc3ccccc3Cl)c2-c2ccncn2)c1 [Compound B-7, 5-[(2-Chlorophenyl)acetylamino]-3-(3-methylphenyl)-4-(4-pyrimidinyl)isoxazole] | 36.7 nM | 21.2%
19 | Cc1ccc(F)c(-c2noc(NC(=O)Cc3ccccc3)c2-c2ccncn2)c1 [Compound B-11, 3-(2-Fluoro-5-methylphenyl)-5-(phenylacetylamino)-4-(4-pyrimidinyl)isoxazole] | 90.5 nM | 39.8%
20 | Cc1cc(-c2noc(NC(=O)Cc3ccccc3C)c2-c2ccncn2)ccc1F [Compound B-13, 3-(3-Methyl-4-fluorophenyl)-5-[(2-methylphenyl)acetylamino]-4-(4-pyrimidinyl)isoxazole] | 13.7 nM | 52.6%
21 | Cc1cccc(-c2noc(NC(=O)CCc3ccccc3)c2-c2ccncc2)c1 [Compound B-14, 3-(3-Methylphenyl)-5-(3-phenylpropionylamino)-4-(4-pyridyl)isoxazole] | 65.5 nM | 17.6%
22 | CCCn1nc(-c2ccc(F)cc2)c(-c2ccncc2)c1C(=O)OCc1ccccc1Cl [Compound B-20] | 83.3 nM | 77.0%
23 | Cc1cccc(-c2noc(NC(=O)Cc3ccccc3C)c2-c2ccncn2)c1 [Compound B-9, 3-(3-Methylphenyl)-5-[(2-methylphenyl)acetylamino]-4-(4-pyrimidinyl)isoxazole] | 13.4 nM | 59.9%
